Converted amounts (≈) assume the structure as drawn. Marks after values point to notes of the source that are not given here.
How the values were obtained:
[1] = test system: larynx carcinoma cell line HEP-2; design: method as in PMID 23569415; conditions: cited from earlier work
[2] = test system: tumor cells lines (leukemia and lung and laryngeal carcinoma); test: Cytotoxicity on tumor cell lines, summary statements over the lines (MTT); type: cell-based; conditions: Homo sapiens; for IC50: leukemia and lung and laryngeal carcinoma, read-out: IC50 values on neoplastic cells (range over cell lines); for inhibition at 25 µg/mL: tumor cells lines, cytotoxicity samples tested at 25 µg/mL, read-out: cell growth inhibition rates
Protocol: (§1) For the in vitro antioxidant tests the samples were emulsified in 0.05% Tween 80 dissolved in saline 0.9% (used as the vehicle) and tested at concentrations of 1, 5, 10, 25 and 100 µg/mL. The samples for the cytotoxicity tests were diluted in pure and sterile DMSO and tested at concentrations of 25 µg/mL.
(§2) Cells were maintained at 37 °C with 5% CO2 in RPMI 1640 (Himedia^TM, Mumbai, India) or DMEM medium (Gibco^TM, Grand Island, NY, USA) supplemented with 2 mM glutamine, 100 U/mL penicillin, 100 μg/mL streptomycin. The antiproliferative activities of riparins were evaluated in the following human cancer cells lineage: HL-60 (pro-myelocytic leukemia), NCIH-292 (lung carcinoma), and HEP-2 (laryngeal carcinoma) obtained from the Rio de Janeiro Cell Bank (RJ-Brazil). For all experiments, 100 µL of tumor cells were plated in 96-well plates (6 × 10^4 cells/cm^2 for adherent cells or 9 × 10^4 cells/cm^2 for leukemia). Tested compounds (0.1–25 μg/mL) dissolved in 1% DMSO (100 µL) were added to each well and incubated for 72 h. Control groups received the same amount of DMSO. After 69 h of treatment, 25 μL of MTT (5 mg/mL) were added. Three hours later, the MTT formazan product was dissolved in 100 μL of DMSO, and absorbance was measured at 595 nm using a multiplate reader (Thermo Plate®, TP Reader, São Paulo, SP, Brasil).

[3] = Antioxidant potential against the formation of TBARS (AAPH-induced lipid peroxidation of egg yolk homogenate); conditions: for IC50 TBARS: TBARS production
Protocol: as §1
The TBARS assay was employed to quantify lipid peroxidation and an adapted TBARS method was used to measure the antioxidant capacity of the riparins (Rip-A, -B, -C, -D, -E and -F) using egg yolk homogenate as lipid rich substrate. Egg yolk was homogenized (1% w/v) in 20 mM phosphate buffer (pH 7.4), 1 mL of homogenate was sonicated and then homogenized with 0.1 mL of the samples at concentrations of 1, 5, 10, 25 and 100 µg/mL. Lipid peroxidation was induced by the addition of 0.1 mL of 2,2'-azobis(2-methylpropionamidine) dihydrochloride solution (AAPH; 0.12 M). Control was evaluated with only the vehicle. Reactions were carried out for 15 minutes at 37 °C. After cooling, samples (0.5 mL) were centrifuged with 0.5 mL of trichloroacetic acid (15%) at 1,200 ×g for 10 min. An aliquot of 0.5 mL from supernatant was mixed with 0.5 mL TBA (0.67%) and heated at 95 °C for 30 min. After cooling, sample absorbance was measured using a spectrophotometer at 532 nm. The results were expressed as percentage of TBARS formed by AAPH alone (induced control).

[4] = test system: HL-60 (pro-myelocytic leukemia); test: Cytotoxicity against tumor cell lines (MTT); type: cell-based; conditions: Homo sapiens, 72 h, 95% confidence interval in brackets, read-out: IC50 values and confidence intervals, HL-60
Protocol: as §2
(§3) The obtained data were evaluated by one-way analysis of variance (ANOVA) followed by a Student Newman Keuls post hoc test. The data concerning release percentage of cytoplasmatic enzyme lactate dehydrogenase (LDH) were reported by mean ± standard deviation and evaluated by one-way analysis of variance (ANOVA) followed by a Tukey post hoc test. In all cases differences were considered significant if p < 0.05, the means and respective standard errors were analyzed in the Graph Pad Prism version 5.0 for Windows software (GraphPad Software Incorporated, San Diego, CA, USA).

[5] = test system: HEP-2 (laryngeal carcinoma); test: Cytotoxicity against tumor cell lines (MTT); type: cell-based; conditions: Homo sapiens, 72 h, 95% confidence interval in brackets, read-out: IC50 values and confidence intervals, HEP-2
Protocol: as §2, §3

[6] = test system: NCIH-292 (lung carcinoma); test: Cytotoxicity against tumor cell lines (MTT); type: cell-based; conditions: Homo sapiens, NCI-H292, 72 h, 95% confidence interval in brackets, read-out: IC50 values and confidence intervals, NCIH-292
Protocol: as §2, §3

[7] = Hydroxyl radical scavenging activity (2-deoxyribose degradation, Fenton reaction); conditions: for IC50 OH radical: hydroxyl radical content
Protocol: as §1
The formation of OH radicals from Fenton reagents was quantified using the condensation product of the 2-deoxyribose oxidative degradation product, malonaldehyde, with 2-thiobarbituric acid (TBA). Briefly, typical reactions were started by the addition of Fe^2+ (FeSO4 6 mM final concentration) to solutions containing 5 mM 2-deoxyribose, 100 mM H2O2 and 20 mM phosphate buffer (pH 7.2). In order to determine the antioxidant activity of the riparins against the hydroxyl radical, individual tests were performed on each one of the six substances, in which different concentrations of the riparins were added to the system before Fe^2+ addition (Rip-A; Rip-B; Rip-C; Rip-D; Rip-E and Rip-F). Reactions were carried out for 15 min at room temperature and were quenched by the addition of phosphoric acid 4% (v/v), followed by TBA 1% (thiobarbituric acid, v/v in 50 μL NaOH). The solutions were boiled for 15 min to 95 °C and then cooled at room temperature. The absorbance was measured at 532 nm and the results were expressed as MDA equivalents formed by Fe^2+ and H2O2 [25].

[8] = Scavenging activity of nitric oxide (nitrite production induced by SNP, Griess reaction); conditions: for IC50 Nitrite: nitrite formation
Protocol: as §1
Nitric oxide was generated from spontaneous decomposition of sodium nitroprusside in 20 mM phosphate buffer (pH 7.4). Once generated, NO interacts with oxygen to produce nitrite ions, which are measured by the Griess reaction. The reaction mixture (1 mL) containing 10 mM sodium nitroprusside (SNP) in phosphate buffer and the riparins at various concentrations of 1, 5, 10, 25 and 100 µg/mL were incubated at 37 °C for 1 h. A 0.5 mL aliquot was taken and homogenized with 0.5 mL Griess reagent. The absorbance of chromophore was measured at 540 nm. Percent inhibition of generated nitric oxide was measured by comparing the absorbance values of negative controls (only 10 mM sodium nitroprusside and vehicle) to assay preparations. Results were expressed as percentage of nitrite formed by SNP alone.

[9] = test system: murine peritoneal macrophages RAW 264.7; test: Cytotoxicity assay on RAW 264.7 (LDH release); type: cell-based; conditions: 25 µg/mL, RAW 264.7
Protocol: Murine peritoneal macrophages of the cell line RAW 264.7 were obtained from the American Type Culture Collection (ATCC, Rockville, MD, USA), and cultured at 37 °C with CO2 at 5% in DMEM-F12 supplemented with 10% fetal bovine serum (FBS; Hyclone^TM, Logan, UT, USA) and gentamicin (50 μg/mL). RAW 264.7 cells (5 × 10^5 cells/mL) were cultured and incubated for 24 h with the riparins A, B, C, D, E and F at the final concentration of 25 µg/mL […]. The cytotoxicity assay was performed by LDH assay. The release of LDH (cytoplasmic lactate dehydrogenase enzyme) was determined using 50 μL of culture supernatant with 100 μL of LDH substrate plus and 5 μL ferric alum (5 mg/mL), at 37 °C for 3 min. Then, 100 μL of the NAD solution and phenazine methosulphate were added to the mixture, maintaining the temperature at 37 °C for 5 min (Labrax Commercial Kit, Clontech, Palo Alto, CA, USA). LDH is an oxidoreductase which catalyzes the interconversion of lactate and pyruvate and, for being a stable cytosolic enzyme, after damage to cell membrane it is released in the cellular environment and because of this LDH is an indirect indicator of cytotoxicity. LDH concentration was determined by colorimetry at 492 nm. The specific release of LDH was calculated as percentage of the controls (not treated cells as negative control and cells treated with 1%Triton X-100 as positive control).
as §3

| Compound | IC50 on HEP-2 [1] [µg/mL] | IC50 [2] [µg/mL] | inhibition at 25 µg/mL [2] [%] | TBARS levels (% AAPH) ([3]; 1 μg/mL) | TBARS levels (% AAPH) ([3]; 5 μg/mL) | TBARS levels (% AAPH) ([3]; 10 μg/mL) | TBARS levels (% AAPH) ([3]; 25 μg/mL) | TBARS levels (% AAPH) ([3]; 100 μg/mL) | IC50 TBARS [3] [µg/mL] | IC50 [4] [µg/mL] | IC50 [5] [µg/mL] | IC50 [6] [µg/mL] | 2-Deoxyribose degradation (%) ([7]; 1 μg/mL) | 2-Deoxyribose degradation (%) ([7]; 5 μg/mL) | 2-Deoxyribose degradation (%) ([7]; 10 μg/mL) | 2-Deoxyribose degradation (%) ([7]; 25 μg/mL) | 2-Deoxyribose degradation (%) ([7]; 100 μg/mL) | IC50 OH radical [7] [µg/mL] | Nitrite Production (% induced by SNP) ([8]; 1 μg/mL) | Nitrite Production (% induced by SNP) ([8]; 5 μg/mL) | other results |
| --- | --- | --- | --- | --- | --- | --- | --- | --- | --- | --- | --- | --- | --- | --- | --- | --- | --- | --- | --- | --- | --- |
| CC[C@H]1CC2CN3CCc4c([nH]c5ccc(OC)cc45)[C@](C(=O)OC)(C2)[C@H]13 (stereo in doubt) [voacangine] | 159.33 (≈ 432 µM) | – | – | – | – | – | – | – | – | – | – | – | – | – | – | – | – | – | – | – | – |
| CC[C@H]1C[C@@H]2CN3CCc4c([nH]c5ccccc45)[C@](C(=O)OC)(C2)[C@H]13 [Coronaridine, coronaridine] | 54.47 (≈ 161 µM) | – | – | – | – | – | – | – | – | – | – | – | – | – | – | – | – | – | – | – | – |
| COc1ccc(CCNC(=O)c2ccccc2O)cc1OC [Rip-D, 2-Hydroxy-N-[2-(3,4-methoxyphenyl)ethyl]benzamide] | – | 1.9 to 11.4 (≈ 6.31 to 37.8 µM) | > 70 | 41.2 ± 0.96 ^a % | 39.4 ± 0.71 ^a % | 37.3 ± 0.68 ^a % | 34.4 ± 0.76 ^a % | 25.6 ± 0.66 ^a % | 0.9958 (≈ 3.3 µM) | 9 (≈ 29.9 µM) | 7.3 (≈ 24.2 µM) | > 25 | 93.5 ± 1.17 ^a % | 67.9 ± 1.74 ^a % | 56.9 ± 0.82 ^a % | 51.9 ± 1.27 ^a % | 47.3 ± 0.88 ^a % | 1.358 (≈ 4.51 µM) | 72.6 ± 1.81 ^a % | 32.2 ± 1.45 ^a % | Nitrite Production (% induced by SNP) ([8]; 10 μg/mL): 28.9 ± 1.74 ^a %; Nitrite Production (% induced by SNP) ([8]; 25 μg/mL): 24.7 ± 1.77 ^a %; Nitrite Production (% induced by SNP) ([8]; 100 μg/mL): 17.3 ± 2.38 ^a %; IC50 Nitrite [8]: 1.270 µg/mL (≈ 4.21 µM); LDH % Release [9]: 83.12%; LDH % Release ([9]; listed as riparin D): greater than 80%; melting point: 96 °C |
| COc1ccc(CCNC(=O)c2c(O)cccc2O)cc1OC [Rip-F, N-[2-(3,4-Dimethoxyphenyl)ethyl]-2,6-dihydroxybenzamide] | – | 1.9 to 11.4 (≈ 5.99 to 35.9 µM) | > 70 | 38.8 ± 0.99 ^a % | 35.9 ± 0.41 ^a % | 35.2 ± 0.44 ^a % | 34.6 ± 0.49 ^a % | 30.3 ± 0.47 ^a % | 0.6231 (≈ 1.96 µM) | 11.4 (≈ 35.9 µM) | 7.8 (≈ 24.6 µM) | 10.3 (≈ 32.5 µM) | 83.3 ± 2.13 ^a % | 61.5 ± 0.98 ^a % | 57.6 ± 1.47 ^a % | 55.1 ± 1.78 ^a % | 50.9 ± 2.33 ^a % | 1.016 (≈ 3.2 µM) | 74.9 ± 2.27 ^a % | 35.3 ± 0.96 ^a % | Nitrite Production (% induced by SNP) ([8]; 10 μg/mL): 21.5 ± 0.98 ^a %; Nitrite Production (% induced by SNP) ([8]; 25 μg/mL): 19.9 ± 0.71 ^a %; Nitrite Production (% induced by SNP) ([8]; 100 μg/mL): 17.3 ± 0.22 ^a %; IC50 Nitrite [8]: 0.5817 µg/mL (≈ 1.83 µM); LDH % Release [9]: 91.01%; LDH % Release ([9]; listed as riparin F): greater than 80%; melting point: 167 °C |
| heyneanine | 689.45 | – | – | – | – | – | – | – | – | – | – | – | – | – | – | – | – | – | – | – | – |

Source: paper PMC6271893, “In Vitro Antioxidant and Cytotoxic Activity of Some Synthetic Riparin-Derived Compounds” (Molecules, 2014)
